Experimental data: patent US20240182531A1, “KV1.3 Blockers” (priority 2021, published 2024)
Where a SMILES comes first, the peptide text is derived from it. Bridges are numbered along the chain shown (N, C = ends). [ ]: non-standard residue; d: D form. Nle = CCCC[C@H](N)C(=O)O

Assays:
Rat whole blood = Rat whole blood (Rattus norvegicus, UniProt P15384); format: cell-based; conditions: IL-17A release, thapsigargin, 24 Hr, at least 2 replicates
human Kv1.2 = target: T1, human Kv1.2 (Homo sapiens, UniProt P16389); assay: cell-based; conditions: ratio of patch clamp IC50 values
T1 construct: expressed in transfected cells; host or cells: CHO
T1 sequence (P16389 whole entry): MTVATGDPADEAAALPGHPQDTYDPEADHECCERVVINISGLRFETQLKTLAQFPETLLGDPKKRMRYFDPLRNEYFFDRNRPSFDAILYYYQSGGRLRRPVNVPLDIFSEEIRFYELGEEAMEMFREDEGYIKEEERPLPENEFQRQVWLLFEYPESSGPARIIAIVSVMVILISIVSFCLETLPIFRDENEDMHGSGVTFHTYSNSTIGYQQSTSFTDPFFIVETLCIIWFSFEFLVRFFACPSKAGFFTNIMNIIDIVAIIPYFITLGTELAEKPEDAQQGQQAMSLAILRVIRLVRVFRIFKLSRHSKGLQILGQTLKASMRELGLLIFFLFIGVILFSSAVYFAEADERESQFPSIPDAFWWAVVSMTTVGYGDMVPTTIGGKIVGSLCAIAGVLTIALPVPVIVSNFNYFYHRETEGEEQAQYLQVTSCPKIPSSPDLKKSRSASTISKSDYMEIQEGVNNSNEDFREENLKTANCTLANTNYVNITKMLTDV

human Kv1.6 = target: T2, human Kv1.6 (Homo sapiens, UniProt P17658); assay: cell-based; conditions: ratio of patch clamp IC50 values
T2 construct: expressed in transfected cells; host or cells: CHO
T2 sequence (P17658 whole entry): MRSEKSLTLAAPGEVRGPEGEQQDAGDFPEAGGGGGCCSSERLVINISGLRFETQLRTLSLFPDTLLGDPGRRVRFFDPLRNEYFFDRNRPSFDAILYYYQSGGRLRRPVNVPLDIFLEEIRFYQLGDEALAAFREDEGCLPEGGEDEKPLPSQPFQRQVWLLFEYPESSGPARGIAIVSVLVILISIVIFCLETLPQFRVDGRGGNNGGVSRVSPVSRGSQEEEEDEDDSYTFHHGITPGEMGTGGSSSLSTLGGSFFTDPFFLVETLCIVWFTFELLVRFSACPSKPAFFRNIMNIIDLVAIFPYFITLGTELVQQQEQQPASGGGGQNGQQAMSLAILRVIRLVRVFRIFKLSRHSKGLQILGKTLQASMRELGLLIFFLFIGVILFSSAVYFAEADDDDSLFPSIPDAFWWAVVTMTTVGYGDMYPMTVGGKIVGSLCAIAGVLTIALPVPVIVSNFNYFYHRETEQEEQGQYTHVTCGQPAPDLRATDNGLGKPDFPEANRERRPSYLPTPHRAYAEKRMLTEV

human Kv1.1 = target: T3, human Kv1.1 (Homo sapiens, UniProt Q09470); assay: cell-based; conditions: ratio of patch clamp IC50 values
T3 construct: expressed in transfected cells; host or cells: CHO
T3 sequence (Q09470 whole entry): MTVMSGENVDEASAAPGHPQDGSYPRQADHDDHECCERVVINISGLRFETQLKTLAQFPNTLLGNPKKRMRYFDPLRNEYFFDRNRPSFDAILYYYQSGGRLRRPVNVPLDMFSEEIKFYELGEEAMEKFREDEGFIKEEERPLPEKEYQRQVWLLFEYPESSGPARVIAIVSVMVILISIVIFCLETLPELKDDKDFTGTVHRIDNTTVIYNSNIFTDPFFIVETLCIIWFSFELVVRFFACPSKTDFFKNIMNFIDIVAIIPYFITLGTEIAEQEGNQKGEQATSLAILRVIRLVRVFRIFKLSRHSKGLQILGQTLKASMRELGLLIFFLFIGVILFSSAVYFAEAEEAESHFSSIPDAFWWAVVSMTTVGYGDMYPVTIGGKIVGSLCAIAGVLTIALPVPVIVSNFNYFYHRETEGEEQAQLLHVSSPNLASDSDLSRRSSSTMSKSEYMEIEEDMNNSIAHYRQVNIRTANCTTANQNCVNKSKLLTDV

Sequence of Rat whole blood (P15384 whole entry): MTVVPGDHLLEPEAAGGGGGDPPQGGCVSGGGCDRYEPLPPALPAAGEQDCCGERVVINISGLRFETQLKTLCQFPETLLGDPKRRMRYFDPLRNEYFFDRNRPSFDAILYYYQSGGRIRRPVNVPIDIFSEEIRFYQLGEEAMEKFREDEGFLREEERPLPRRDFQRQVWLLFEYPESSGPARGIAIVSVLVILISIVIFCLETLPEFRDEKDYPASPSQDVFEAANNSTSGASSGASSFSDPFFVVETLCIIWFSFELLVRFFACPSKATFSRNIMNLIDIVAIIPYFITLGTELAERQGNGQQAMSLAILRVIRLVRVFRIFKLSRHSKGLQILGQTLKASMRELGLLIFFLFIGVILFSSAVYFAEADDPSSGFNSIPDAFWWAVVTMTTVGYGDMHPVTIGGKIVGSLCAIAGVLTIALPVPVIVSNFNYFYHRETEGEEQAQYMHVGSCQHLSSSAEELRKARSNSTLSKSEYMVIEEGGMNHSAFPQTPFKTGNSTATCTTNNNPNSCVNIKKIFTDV

SMILES | IC50 (Rat whole blood) | Selectivity ratio Kv1.2/Kv1.3 (human Kv1.2) | Selectivity ratio Kv1.6/Kv1.3 (human Kv1.6) | Selectivity ratio Kv1.1/Kv1.3 (human Kv1.1)
CCCC[C@H](NC(=O)[C@@H](N)CO)C(=O)N[C@@H](CC(=O)O)C(=O)N[C@@H](CCC(=O)O)C(=O)N[C@@H](CCCNC(=N)N)C(=O)N[C@H]1CSSC[C@@H]2NC(=O)[C@H](CCCCN)NC(=O)CNC(=O)[C@H](Cc3ccccc3)NC(=O)[C@H]([C@@H](C)CC)NC(=O)[C@H](CO)NC(=O)CNC(=O)[C@H]([C@@H](C)CC)NC(=O)[C@H](C)NC(=O)[C@H](CCCCN)NC(=O)[C@H](CC(C)C)NC(=O)[C@@H]3CSSC[C@@H](C(=O)N[C@@H](Cc4ccc(O)cc4)C(=O)N4CCC[C@H]4C(=O)N[C@@H](CCCNC(=N)N)C(N)=O)NC(=O)[C@H](CCCCN)NC(=O)[C@H](CSSC[C@H](NC(=O)[C@H](CCC(=O)O)NC(=O)[C@H](C(C)C)NC(=O)[C@H](CO)NC(=O)[C@H](C)NC(=O)[C@H](CO)NC1=O)C(=O)N[C@@H](CCCCN)C(=O)N[C@@H](CCC(N)=O)C(=O)N[C@@H](CCCCN)C(=O)N3)NC(=O)[C@H](CCCCN)NC(=O)[C@H](CCCCN)NC(=O)[C@H](CC(N)=O)NC(=O)[C@H](CCSC)NC2=O [compound 76] (H-S[Nle]DERCSASVECKQKCLKAIGSIFGKCMNKKCKCYPR-NH2; disulfide 6-27, 12-32, 16-34) | 0.55 nM | 430 | >10600 | >10600
CC[C@H](C)[C@@H]1NC(=O)[C@H](C)NC(=O)[C@H](CCCCN)NC(=O)[C@H](CC(C)C)NC(=O)[C@@H]2CSSC[C@@H](C(=O)N[C@@H](Cc3ccc(O)cc3)C(=O)N3CCC[C@H]3C(=O)N[C@@H](CCCNC(=N)N)C(N)=O)NC(=O)[C@H](CCCCN)NC(=O)[C@@H]3CSSC[C@H](NC(=O)[C@H](CCC(=O)O)NC(=O)[C@H](C(C)C)NC(=O)[C@H](CO)NC(=O)[C@H](C)NC(=O)[C@H](CO)NC(=O)[C@@H](NC(=O)[C@H](CCCNC(=N)N)NC(=O)[C@H](CCSC)NC(=O)[C@H](CC(=O)O)NC(=O)[C@H](CCSC)NC(=O)[C@@H](N)CC(N)=O)CSSC[C@H](NC(=O)[C@H](CCCCN)NC(=O)CNC(=O)[C@H](Cc4ccccc4)NC(=O)[C@H]([C@@H](C)CC)NC(=O)[C@H](CO)NC(=O)CNC1=O)C(=O)N[C@@H](CCSC)C(=O)N[C@@H](CC(N)=O)C(=O)N[C@@H](CCCCN)C(=O)N[C@@H](CCCCN)C(=O)N3)C(=O)N[C@@H](CC(C)C)C(=O)N[C@@H](CCC(N)=O)C(=O)N[C@@H](CCCCN)C(=O)N2 [compound 33] (H-NMDMRCSASVECLQKCLKAIGSIFGKCMNKKCKCYPR-NH2; disulfide 6-27, 12-32, 16-34) | 0.76 nM | 2163 | >7400 | >7400
CCCC[C@@H]1NC(=O)[C@@H]2CSSC[C@H](N)C(=O)N[C@@H](CO)C(=O)N[C@@H](C)C(=O)N[C@@H](CO)C(=O)N[C@@H](C(C)C)C(=O)N[C@@H](CCC(=O)O)C(=O)N[C@H]3CSSC[C@H](NC(=O)[C@H](CCCCN)NC(=O)[C@H](CCCCN)NC(=O)[C@H](CC(N)=O)NC1=O)C(=O)N[C@@H](CCCCN)C(=O)N[C@H](C(=O)N[C@@H](Cc1ccc(O)cc1)C(=O)N1CCC[C@H]1C(=O)N[C@@H](CCCNC(=N)N)C(N)=O)CSSC[C@H](NC(=O)[C@H](CCCCN)NC(=O)[C@H](CCC(N)=O)NC(=O)[C@H](CCCCN)NC3=O)C(=O)N[C@@H](CC(C)C)C(=O)N[C@@H](CCCCN)C(=O)N[C@@H](C)C(=O)N[C@@H]([C@@H](C)CC)C(=O)NCC(=O)N[C@@H](CO)C(=O)N[C@@H]([C@@H](C)CC)C(=O)N[C@@H](Cc1ccccc1)C(=O)NCC(=O)N[C@@H](CCCCN)C(=O)N2 [compound 98] (H-CSASVECKQKCLKAIGSIFGKC[Nle]NKKCKCYPR-NH2; disulfide 1-22, 7-27, 11-29) | 1.6 nM | >7000 | >7000 | >7000
CCCC[C@@H]1NC(=O)[C@@H]2CSSC[C@H](NC(=O)[C@H](CCCCN)NC(=O)[C@H](CO)NC(C)=O)C(=O)N[C@@H](CO)C(=O)N[C@@H](C)C(=O)N[C@@H](CO)C(=O)N[C@@H](C(C)C)C(=O)N[C@@H](CCC(=O)O)C(=O)N[C@H]3CSSC[C@H](NC(=O)[C@H](CCCCN)NC(=O)[C@H](CCCCN)NC(=O)[C@H](CC(N)=O)NC1=O)C(=O)N[C@@H](CCCCN)C(=O)N[C@H](C(=O)N[C@@H](Cc1ccc(O)cc1)C(=O)N1CCC[C@H]1C(=O)N[C@@H](CCCNC(=N)N)C(N)=O)CSSC[C@H](NC(=O)[C@H](CCCCN)NC(=O)[C@H](CCC(N)=O)NC(=O)[C@H](CCCCN)NC3=O)C(=O)N[C@@H](CC(C)C)C(=O)N[C@@H](CCCCN)C(=O)N[C@@H](C)C(=O)N[C@@H]([C@@H](C)CC)C(=O)NCC(=O)N[C@@H](CO)C(=O)N[C@@H]([C@@H](C)CC)C(=O)N[C@@H](Cc1ccccc1)C(=O)NCC(=O)N[C@@H](CCCCN)C(=O)N2 [compound 101] (Ac-SKCSASVECKQKCLKAIGSIFGKC[Nle]NKKCKCYPR-NH2; disulfide 3-24, 9-29, 13-31) | 0.36 nM | 196 | 1451 | >3000
CCCC[C@@H]1NC(=O)[C@@H]2CSSC[C@H](NC(=O)[C@H](CCCNC(=N)N)NC(=O)[C@H](CCCC)NC(=O)[C@H](CC(=O)O)NC(=O)[C@H](CCCC)NC(=O)[C@@H](N)CC(N)=O)C(=O)N[C@@H](CO)C(=O)N[C@@H](C)C(=O)N[C@@H](CO)C(=O)N[C@@H](C(C)C)C(=O)N[C@@H](CCC(=O)O)C(=O)N[C@H]3CSSC[C@H](NC(=O)[C@H](CCCCN)NC(=O)[C@H](CCCCN)NC(=O)[C@H](CC(N)=O)NC1=O)C(=O)N[C@@H](CCCCN)C(=O)N[C@H](C(=O)N[C@@H](Cc1ccc(O)cc1)C(=O)N1CCC[C@H]1C(=O)N[C@@H](CCCNC(=N)N)C(N)=O)CSSC[C@H](NC(=O)[C@H](CCCCN)NC(=O)[C@H](CCC(N)=O)NC(=O)[C@H](CCCCN)NC3=O)C(=O)N[C@@H](CC(C)C)C(=O)N[C@@H](CCCCN)C(=O)N[C@@H](C)C(=O)N[C@@H]([C@@H](C)CC)C(=O)NCC(=O)N[C@@H](CO)C(=O)N1CCC[C@H]1C(=O)N[C@@H](Cc1ccccc1)C(=O)NCC(=O)N[C@@H](CCCCN)C(=O)N2 [compound 62] (H-N[Nle]D[Nle]RCSASVECKQKCLKAIGSPFGKC[Nle]NKKCKCYPR-NH2; disulfide 6-27, 12-32, 16-34) | 0.44 nM | 1740 | 9102 | >11600
CCCC[C@@H]1NC(=O)[C@@H]2CSSC[C@H](NC(=O)[C@H](CCCNC(=N)N)NC(=O)[C@H](CCCC)NC(=O)[C@H](CC(=O)O)NC(=O)[C@H](CCCC)NC(=O)[C@@H](N)CC(N)=O)C(=O)N[C@@H](CO)C(=O)N[C@@H](C)C(=O)N[C@@H](CO)C(=O)N[C@@H](C(C)C)C(=O)N[C@@H](CCC(=O)O)C(=O)N[C@H]3CSSC[C@H](NC(=O)[C@H](CCCCN)NC(=O)[C@H](CCCCN)NC(=O)[C@H](CC(N)=O)NC1=O)C(=O)N[C@@H](CCCCN)C(=O)N[C@H](C(=O)N[C@@H](Cc1ccc(O)cc1)C(=O)N1CCC[C@H]1C(=O)N[C@@H](CCCNC(=N)N)C(N)=O)CSSC[C@H](NC(=O)[C@H](CCCCN)NC(=O)[C@H](CCCCN)NC(=O)[C@H](CCCCN)NC3=O)C(=O)N[C@@H](CC(C)C)C(=O)N[C@@H](CCCCN)C(=O)N[C@@H](C)C(=O)N[C@@H]([C@@H](C)CC)C(=O)NCC(=O)N[C@@H](CO)C(=O)N[C@@H]([C@@H](C)CC)C(=O)N[C@@H](Cc1ccccc1)C(=O)NCC(=O)N[C@@H](CCCCN)C(=O)N2 [compound 49] (H-N[Nle]D[Nle]RCSASVECKKKCLKAIGSIFGKC[Nle]NKKCKCYPR-NH2; disulfide 6-27, 12-32, 16-34) | 1.4 nM | 343 | >4000 | >4000
CC[C@H](C)[C@@H]1NC(=O)[C@H](C)NC(=O)[C@H](CCCCN)NC(=O)[C@H](CC(C)C)NC(=O)[C@@H]2CSSC[C@@H](C(=O)N[C@@H](Cc3ccc(O)cc3)C(=O)N3CCC[C@H]3C(=O)N[C@@H](CCCNC(=N)N)C(N)=O)NC(=O)[C@H](CCCCN)NC(=O)[C@@H]3CSSC[C@H](NC(=O)[C@H](CCC(=O)O)NC(=O)[C@H](CCCNC(=N)N)NC(=O)[C@H](CO)NC(=O)[C@H](C)NC(=O)[C@H](CO)NC(=O)[C@@H](NC(=O)[C@H](CCCNC(=N)N)NC(=O)[C@H](CCSC)NC(=O)[C@H](CC(=O)O)NC(=O)[C@H](CCSC)NC(=O)[C@@H](N)CC(N)=O)CSSC[C@H](NC(=O)[C@H](CCCCN)NC(=O)CNC(=O)[C@H](Cc4ccccc4)NC(=O)[C@H]([C@@H](C)CC)NC(=O)[C@H](CO)NC(=O)CNC1=O)C(=O)N[C@@H](CCSC)C(=O)N[C@@H](CC(N)=O)C(=O)N[C@@H](CCCCN)C(=O)N[C@@H](CCCCN)C(=O)N3)C(=O)N[C@@H](CCCCN)C(=O)N[C@@H](CCC(N)=O)C(=O)N[C@@H](CCCCN)C(=O)N2 [compound 31] (H-NMDMRCSASRECKQKCLKAIGSIFGKCMNKKCKCYPR-NH2; disulfide 6-27, 12-32, 16-34) | 0.68 nM | 94 | 1778 | >25900
